{
  "source": "paper PMC8456950",
  "about": "“Structure‐Guided Design of G‐Protein‐Coupled Receptor Polypharmacology” (Angewandte Chemie (International Ed. in English), 2021)",
  "test_system": "unilaterally 6-OHDA lesioned rats",
  "experiment": "Rotation test in unilaterally 6-OHDA lesioned rats (model of Parkinsonism)",
  "assay_type": "in vivo",
  "settings": "apomorphine 1 mg/kg IP, 6-OHDA lesioned rats",
  "description": "Evaluation of compound 30 in rodent model of Parkinsonism. Male Sprague Dawley rats (150-200 g) were housed in air-conditioned rooms (12h dark/light cycle) at 20°C and a humidity of 53%. Experiments were performed in agreement with the European Communities Council Directive of 24 November 1986 (86/609/EEC) on the ethical use of animals and were approved by the local ethical committee (Stockholm North Ethical Committee, N105/16). Rats were anesthetized with ketamine (100 mg/kg, IP; Intervet)/xylazine (5 mg/kg, IP; Bayer, Kiel, Germany), pretreated with desipramine (25 mg/kg, IP; Sigma, St Louis, MO, USA)/pargyline (5 mg/kg, IP; Sigma), placed in a stereotaxi c instrument and injected with 6-OHDA (2.5 µl of a 5mg/ml solution; Sigma) into the median forebrain bundle (MFB) of the right hemisphere (AP -2.8 mm, ML -2.0 mm and V -9.0 mm). Two weeks after the unilateral 6-OHDA lesion, rats were injected with apomorphine (1 mg/kg, IP; Sigma) and their contralateral rotations were measured to determine the degree of nigrostriatal denervation. Four weeks after surgery, rats that were divided into two group according to the number of apomorphine-induced rotations. The rats were treated either with DMSO(17%)/saline (n=6) or compound 30 (n=7, 24 mg/kg, IP) dissolved in DMSO(17%)/saline. The number of rotations was calculated automatically with Noldus EthoVision XT11. 5 Software for 30 min following the drug administration. The two […]\ngroups were then compared by using a Mann-Whitney test. A second set of independent experiments using a new set of rats were carried out using the same protocol to assess the involvement of the D2R in the observed effect. In this case, rats were divided into four groups according to the number of apomorphine-induced rotations. The rats were treated with either DMSO(17%)/saline (n=6), raclopride (n=7, 2mg/kg, IP) dissolved in DMSO(17%)/saline, compound 30 (n=7, 24 mg/kg, IP) dissolved in DMSO(17%)/saline or the combination of raclopride (30 min pretreatment) and compound 30 (n=7). The rotation test was then performed for 30 min. […]",
  "data": [
    {"compound": "CN1CCc2cccc3c2[C@H]1Cc1ccc(O)c(O)c1-3", "note": "[apomorphine, reference compound]", "values": [
      {"measurement": "rotational behaviour induced by control D2R agonist", "value": "contralateral rotational behaviour"}
    ]}
  ]
}
